Format in all cases: functional
One test relates to Candida parapsilosis. Nature of the test: Antifungal activity against Candida parapsilosis by microbroth dilution method. The following applies: Lodderomyces parapsilosis. For orientation: Broth dilution looks for growth in wells or tubes with falling amounts of substance.
Test [1] deals with Candida tropicalis. In words: Antifungal activity against Candida tropicalis by microbroth dilution method.
The subject of test [2] is Kluyveromyces marxianus. Nature of the test: Antifungal activity against Candida kefyr by microbroth dilution method.
A further test has as its system Trichophyton rubrum. Nature of the test: Antifungal activity against Trichophyton rubrum by microbroth dilution method.
A further test concerns Aspergillus fumigatus. Nature of the test: Antifungal activity against Aspergillus fumigatus by microbroth dilution method.
Test [3] has as its system Candida albicans. Nature of the test: Ratio of MIC80 for fluconazole to compound for Candida albicans SC5314 after 24 hrs by microbroth dilution method.
Test [4] relates to Kluyveromyces marxianus. In words: Ratio of MIC80 for fluconazole to compound for Candida kefyr by microbroth dilution method.
Test [5] concerns Candida albicans. In words: Antifungal activity against Candida albicans SC5314 after 24 hrs by microbroth dilution method. The following applies: SC5314, 24 h.
The test system of test [6] is Candida albicans. In words: Antifungal activity against Candida albicans Y0109 after 24 hrs by microbroth dilution method. To be noted: Y0109, 24 h.
A further test has as its system Cryptococcus neoformans. In words: Antifungal activity against Cryptococcus neoformans after 72 hrs by microbroth dilution method.
For test [7], the system named is Candida tropicalis. Nature of the test: Ratio of MIC80 for fluconazole to compound for Candida tropicalis by microbroth dilution method.

Converted amounts (≈) assume the structure as drawn.

The term MIC80 denotes the lowest concentration that inhibits either 80% of growth or 80% of the strains tested, depending on the study. High values mean weaker potency, low ones greater potency. In the case of `Cc1ccc(Cn2cc(CC(O)(Cn3cncn3)c3ccc(F)cc3F)nn2)cc1` (centres undefined), the MIC80 was determined as 0.0625 µg/mL (≈ 0.152 µM) with Candida parapsilosis; 0.125 µg/mL (≈ 0.305 µM) in the test with Candida tropicalis [1]; 0.0156 µg/mL (≈ 0.038 µM) in the test on Kluyveromyces marxianus [2]; 0.0625 µg/mL (≈ 0.152 µM) in the test on Trichophyton rubrum; 2 µg/mL (≈ 4.87 µM) against Aspergillus fumigatus; 0.0156 µg/mL (≈ 0.038 µM) with Candida albicans [5]. The MIC80 with Candida albicans [6] was found to be 0.0039 µg/mL (≈ 0.0095 µM); against Cryptococcus neoformans it was 0.125 µg/mL (≈ 0.305 µM). Further, the Ratio with Candida albicans [3] is given as 128; in the test on Kluyveromyces marxianus [4] it was 256.

As to `OC(Cc1cn(Cc2ccc(F)c(F)c2)nn1)(Cn1cncn1)c1ccc(F)cc1F` (centres undefined), the MIC80 against Candida parapsilosis came out at 0.125 µg/mL (≈ 0.289 µM); against Candida tropicalis [1], 0.125 µg/mL (≈ 0.289 µM); in the test with Kluyveromyces marxianus [2], 0.25 µg/mL (≈ 0.578 µM); in the test with Trichophyton rubrum it was 0.25 µg/mL (≈ 0.578 µM); in the test on Aspergillus fumigatus, 16 µg/mL (≈ 37 µM); in the test on Candida albicans [5] it was 0.25 µg/mL (≈ 0.578 µM). Also, the MIC80 was 0.125 µg/mL (≈ 0.289 µM) against Candida albicans [6] and 1 µg/mL (≈ 2.31 µM) in the test with Cryptococcus neoformans. Besides, the Ratio with Kluyveromyces marxianus [4] worked out at 64; in the test on Candida tropicalis [7], 16.

In the case of `C[C@@H]1[C@H](O)[C@@H](C)/C=C/C=C/C=C/C=C/C=C/C=C/C=C/[C@H](O[C@@H]2O[C@H](C)[C@@H](O)[C@H](N)[C@@H]2O)C[C@@H]2O[C@](O)(C[C@@H](O)C[C@@H](O)[C@H](O)CC[C@@H](O)C[C@@H](O)CC(=O)O[C@H]1C)C[C@H](O)[C@H]2C(=O)O` [AMPHOTERICIN B], the MIC80 against Candida parapsilosis worked out at 0.25 µg/mL (≈ 0.271 µM); in the test on Candida tropicalis [1] it was 1 µg/mL (≈ 1.08 µM); against Kluyveromyces marxianus [2], 0.25 µg/mL (≈ 0.271 µM); in the test on Trichophyton rubrum, 4 µg/mL (≈ 4.33 µM); against Aspergillus fumigatus it was 1 µg/mL (≈ 1.08 µM); in the test on Candida albicans [5], 0.25 µg/mL (≈ 0.271 µM). Also, the MIC80 in the test with Candida albicans [6] amounted to 0.25 µg/mL (≈ 0.271 µM); against Cryptococcus neoformans it was 1 µg/mL (≈ 1.08 µM).

In the case of `C[C@@H](c1ncncc1F)[C@](O)(Cn1cncn1)c1ccc(F)cc1F` [VORICONAZOLE], the MIC80 turned out to be 0.0039 µg/mL (≈ 0.0112 µM) with Candida parapsilosis; 0.0039 µg/mL (≈ 0.0112 µM) against Candida tropicalis [1]; 0.0625 µg/mL (≈ 0.179 µM) in the test with Kluyveromyces marxianus [2]; 0.0156 µg/mL (≈ 0.0447 µM) in the test on Trichophyton rubrum; 0.0156 µg/mL (≈ 0.0447 µM) in the test on Aspergillus fumigatus; 0.0625 µg/mL (≈ 0.179 µM) against Candida albicans [5]. Moreover, the MIC80 came out at 0.0625 µg/mL (≈ 0.179 µM) in the test on Candida albicans [6] and 0.0039 µg/mL (≈ 0.0112 µM) against Cryptococcus neoformans.

As for `OC(Cc1cn(Cc2ccc(Cl)cc2)nn1)(Cn1cncn1)c1ccc(F)cc1F` (centres undefined), the MIC80 was 0.125 µg/mL (≈ 0.29 µM) in the test on Candida parapsilosis; 0.5 µg/mL (≈ 1.16 µM) in the test on Candida tropicalis [1]; 0.0625 µg/mL (≈ 0.145 µM) in the test with Kluyveromyces marxianus [2]; 0.125 µg/mL (≈ 0.29 µM) against Trichophyton rubrum; 4 µg/mL (≈ 9.28 µM) against Aspergillus fumigatus; under 0.125 µg/mL against Candida albicans [5]. For the same molecule, the MIC80 with Candida albicans [6] is 0.0625 µg/mL (≈ 0.145 µM); with Cryptococcus neoformans, 0.25 µg/mL (≈ 0.58 µM).

(Values after ChEMBL document CHEMBL2016536, “New triazole derivatives as antifungal agents: synthesis via click reaction, in vitro evaluation and molecular docking studies” (2012).)
